Measurements from US20150105252A1, “SUBSTITUTED PYRAZOLES AS HERBICIDES” (E I DU PONT DE NEMOURS AND COMPANY, priority 2013, published 2015).

Columns and labels:
oilseed rape [1] = assay: Test C preemergence; type: in vivo, Brassica napus; settings: for Oilseed Rape plant response rating / Plant response rating, Oilseed Rape: preemergence; for Plant response rating, Oilseed Rape: 125 g ai/ha, scale 0 to 100, 0 = no effect, 100 = complete control
How it was run: (§1)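 Seeds sown in loam–sand blend and treated preemergence with test chemicals in non-phytotoxic solvent with surfactant; postemergence plants in peat-based medium, treated at 2–18 cm (1- to 4-leaf stage). Greenhouse 13 to 15 days, then visual rating versus controls, 0 (no effect) to 100 (complete control).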

kochia = assay: Test C postemergence; type: in vivo, Kochia scoparia; settings: for Plant response rating (scale of 0 to 100 where 0 is no effect and 100 is complete control), Kochia: Postemergence, 31 g ai/ha, visually evaluated after 13 to 15 days; for Kochia plant response rating / Plant response rating, Kochia: postemergence; for Kochia plant response rating: 62 g ai/ha, scale 0 to 100
How it was run: as §1

pigweed [2] = assay: Test A preemergence; type: in vivo, Amaranthus retroflexus; settings: preemergence
How it was run: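 After sowing in a sand–loam mix, pots received compound preemergence by directed soil spray, or postemergence once plants reached the one- to two-leaf stage (2–10 cm). Formulation contained surfactant in a non-phytotoxic solvent. Injury was scored visually after ~10 greenhouse days, 0–100 scale.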

soybean = assay: Test C postemergence; type: in vivo, Glycine max; settings: for Soybean plant response rating / Plant response rating, Soybean: postemergence
How it was run: as §1

pigweed [3] = assay: Test C preemergence; type: in vivo, Amaranthus retroflexus; settings: for Pigweed plant response rating / Plant response rating, Pigweed: preemergence; for Plant response rating, Pigweed: 125 g ai/ha, scale 0 to 100, 0 = no effect, 100 = complete control
How it was run: as §1

nutsedge, yellow = assay: Test C postemergence; type: in vivo, Cyperus esculentus; settings: for Plant response rating (scale of 0 to 100 where 0 is no effect and 100 is complete control), Nutsedge, Yellow: Postemergence, 31 g ai/ha, visually evaluated after 13 to 15 days; for Nutsedge, Yellow plant response rating / Plant response rating, Nutsedge, Yellow: postemergence; for Nutsedge, Yellow plant response rating: 62 g ai/ha, scale 0 to 100
How it was run: as §1

oat, wild = assay: Test C postemergence; type: in vivo, Avena fatua; settings: for Plant response rating (scale of 0 to 100 where 0 is no effect and 100 is complete control), Oat, Wild: Postemergence, 31 g ai/ha, visually evaluated after 13 to 15 days; for Oat, Wild plant response rating / Plant response rating, Oat, Wild: postemergence; for Oat, Wild plant response rating: 62 g ai/ha, scale 0 to 100
How it was run: as §1

barnyardgrass = assay: Test B flood; type: in vivo, Echinochloa crus-galli; settings: 250 g ai/ha, visual rating on 0 to 100 scale (0 no effect, 100 complete control), 13 to 15 days
How it was run: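 Flooded-pot test: compound dosed into 3 cm of standing water above soil when plants had two leaves. Visual control ratings (0–100) versus untreated plants after 13–15 d.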

ragweed [4] = assay: Test C preemergence; type: in vivo, Ambrosia elation; settings: for Ragweed plant response rating / Plant response rating, Ragweed: preemergence; for Plant response rating, Ragweed: 125 g ai/ha, scale 0 to 100, 0 = no effect, 100 = complete control
How it was run: as §1

oilseed rape [5] = assay: Test C postemergence; type: in vivo, Brassica napus; settings: for Oilseed Rape plant response rating / Plant response rating, Oilseed Rape: postemergence; for Oilseed Rape plant response rating: 62 g ai/ha, scale 0 to 100
How it was run: as §1

foxtail, giant = assay: Test C preemergence; type: in vivo, Setaria faberii; settings: for Foxtail, Giant plant response rating / Plant response rating, Foxtail, Giant: preemergence; for Plant response rating, Foxtail, Giant: 125 g ai/ha, scale 0 to 100, 0 = no effect, 100 = complete control
How it was run: as §1

ragweed [6] = assay: Test C postemergence; type: in vivo, Ambrosia elation
How it was run: as §1

[7] = 31 g ai/ha, visual rating, scale 0 to 100 (0 no effect, 100 complete control), 13 to 15 days
[8] = 62 g ai/ha, scale 0 to 100 (0 no effect, 100 complete control), 13 to 15 days
[9] = 250 g ai/ha, scale 0 to 100 (0 no effect, 100 complete control)
[10] = 125 g ai/ha, scale 0 to 100, 0 no effect, 100 complete control
[11] = 500 g ai/ha, visual injury after approx. 10 days, 0 to 100 scale (0 no effect, 100 complete control)
[12] = Postemergence, 31 g ai/ha, visually evaluated after 13 to 15 days
[13] = postemergence, 250 g ai/ha, scale 0 to 100 (0 no effect, 100 complete control)
[14] = postemergence, 125 g ai/ha, scale 0 to 100, 0 no effect, 100 complete control
[15] = 250 g ai/ha, scale 0 to 100, 0 is no effect, 100 is complete control

With CCCc1cc(C(=O)NCC(F)(F)F)nn1Cc1ccnc(OC(F)F)c1 [Compound 127] the “Plant response rating (scale of 0 to 100), Oilseed Rape” value (oilseed rape [1]; Preemergence, 250 g ai/ha) was 100, the “Oilseed Rape plant response rating” value (oilseed rape [1]; [7]) was 85 and the “Oilseed Rape plant response rating” value (oilseed rape [1]; [8]) was 100. The “Plant response rating, Oilseed Rape” value (oilseed rape [1]; 13 to 15 days) was 100, the “Plant response rating (scale of 0 to 100 where 0 is no effect and 100 is complete control), Kochia” value (kochia) was 60 and the “Kochia plant response rating” value (kochia) was 65. For the same molecule, the “Plant response rating, Kochia” value (kochia; [9]) was 90, the “Plant response rating, Kochia” value (kochia; [10]) was 65 and the “Pigweed plant response rating” value (pigweed [2]; 125 g ai/ha, visual injury, 0 to 100 scale, approx. 10 days) was 90. The “Pigweed plant response rating” value (pigweed [2]; [11]) was 100, the “Plant response rating (scale of 0 to 100 where 0 is no effect and 100 is complete control), Soybean” value (soybean; [12]) was 40 and the “Soybean plant response rating” value (soybean; 62 g ai/ha, scale 0 to 100) was 65. The “Plant response rating, Soybean” value (soybean; [9]) was 85, the “Plant response rating, Soybean” value (soybean; [10]) was 70 and the “Plant response rating (scale of 0 to 100), Pigweed” value (pigweed [3]; Preemergence, 250 g ai/ha) was 100. The “Pigweed plant response rating” value (pigweed [3]; [7]) was 100, the “Pigweed plant response rating” value (pigweed [3]; [8]) was 100 and the “Plant response rating, Pigweed” value (pigweed [3]; 13 to 15 days) was 100. The “Plant response rating (scale of 0 to 100 where 0 is no effect and 100 is complete control), Nutsedge, Yellow” value (nutsedge, yellow) was 5, the “Nutsedge, Yellow plant response rating” value (nutsedge, yellow) was 5 and the “Plant response rating, Nutsedge, Yellow” value (nutsedge, yellow; [9]) was 25. For the same molecule, the “Plant response rating, Nutsedge, Yellow” value (nutsedge, yellow; [10]) was 15, the “Plant response rating (scale of 0 to 100 where 0 is no effect and 100 is complete control), Oat, Wild” value (oat, wild) was 5 and the “Oat, Wild plant response rating” value (oat, wild) was 5. For the same molecule, the “Plant response rating, Oat, Wild” value (oat, wild; [9]) was 35, the “Plant response rating, Oat, Wild” value (oat, wild; [10]) was 5 and the “Plant response rating, Barnyardgrass” value (barnyardgrass) was 70. For the same molecule, the “Plant response rating (scale of 0 to 100), Ragweed” value (ragweed [4]; Preemergence, 250 g ai/ha) was 90, the “Ragweed plant response rating” value (ragweed [4]; [7]) was 15 and the “Ragweed plant response rating” value (ragweed [4]; [8]) was 25. The “Plant response rating, Ragweed” value (ragweed [4]; 13 to 15 days) was 60, the “Plant response rating (scale of 0 to 100 where 0 is no effect and 100 is complete control), Oilseed Rape” value (oilseed rape [5]; [12]) was 65 and the “Oilseed Rape plant response rating” value (oilseed rape [5]) was 70. For the same molecule, the “Plant response rating, Oilseed Rape” value (oilseed rape [5]; [9]) was 85, the “Plant response rating, Oilseed Rape” value (oilseed rape [5]; [10]) was 80 and the “Plant response rating (scale of 0 to 100), Foxtail, Giant” value (foxtail, giant; Preemergence, 250 g ai/ha) was 98. The “Foxtail, Giant plant response rating” value (foxtail, giant; [7]) was 98, the “Foxtail, Giant plant response rating” value (foxtail, giant; [8]) was 100 and the “Plant response rating, Foxtail, Giant” value (foxtail, giant; 13 to 15 days) was 100. For the same molecule, the “Plant response rating (scale of 0 to 100 where 0 is no effect and 100 is complete control), Ragweed” value (ragweed [6]; [12]) was 30, the “Ragweed plant response rating” value (ragweed [6]; postemergence, 62 g ai/ha, scale 0 to 100) was 20 and the “Plant response rating, Ragweed” value (ragweed [6]; [13]) was 60. The “Plant response rating, Ragweed” value (ragweed [6]; [14]) was 50.

With CCNC(=O)c1cc(CC)n(Cc2cc(C(F)(F)F)nn2C)n1 [Compound 154] the “Oilseed Rape plant response rating” value (oilseed rape [1]; [7]) was 85, the “Oilseed Rape plant response rating” value (oilseed rape [1]; [8]) was 95 and the “Plant response rating, Oilseed Rape” value (oilseed rape [1]; 13 to 15 days) was 95. For the same molecule, the “Oilseed Rape plant response rating” value (oilseed rape [1]; [15]) was 95, the “Plant response rating (scale of 0 to 100 where 0 is no effect and 100 is complete control), Kochia” value (kochia) was 80 and the “Kochia plant response rating” value (kochia) was 85. For the same molecule, the “Plant response rating, Kochia” value (kochia; [9]) was 95, the “Plant response rating, Kochia” value (kochia; [10]) was 85 and the “Pigweed plant response rating (0 to 100 scale)” value (pigweed [2]; 125 g ai/ha, visual injury approx. 10 days after treatment) was 100. The “Pigweed plant response rating” value (pigweed [2]; [11]) was 100, the “Plant response rating, Soybean” value (soybean; [9]) was 90 and the “Soybean plant response rating” value (soybean; [10]) was 85. The “Pigweed plant response rating” value (pigweed [3]; [7]) was 85, the “Pigweed plant response rating” value (pigweed [3]; [8]) was 98 and the “Plant response rating, Pigweed” value (pigweed [3]; 13 to 15 days) was 100. For the same molecule, the “Pigweed plant response rating” value (pigweed [3]; [15]) was 100, the “Plant response rating (scale of 0 to 100 where 0 is no effect and 100 is complete control), Nutsedge, Yellow” value (nutsedge, yellow) was 0 and the “Nutsedge, Yellow plant response rating” value (nutsedge, yellow) was 0. The “Plant response rating, Nutsedge, Yellow” value (nutsedge, yellow; [9]) was 5, the “Plant response rating, Nutsedge, Yellow” value (nutsedge, yellow; [10]) was 5 and the “Plant response rating (scale of 0 to 100 where 0 is no effect and 100 is complete control), Oat, Wild” value (oat, wild) was 5. For the same molecule, the “Oat, Wild plant response rating” value (oat, wild) was 5, the “Plant response rating, Oat, Wild” value (oat, wild; [9]) was 25 and the “Plant response rating, Oat, Wild” value (oat, wild; [10]) was 20. The “Plant response rating, Barnyardgrass” value (barnyardgrass) was 45, the “Ragweed plant response rating” value (ragweed [4]; [7]) was 25 and the “Ragweed plant response rating” value (ragweed [4]; [8]) was 80. The “Plant response rating, Ragweed” value (ragweed [4]; 13 to 15 days) was 98, the “Ragweed plant response rating” value (ragweed [4]; [15]) was 98 and the “Oilseed Rape plant response rating” value (oilseed rape [5]) was 45. The “Plant response rating, Oilseed Rape” value (oilseed rape [5]; [9]) was 70, the “Plant response rating, Oilseed Rape” value (oilseed rape [5]; [10]) was 60 and the “Foxtail, Giant plant response rating” value (foxtail, giant; [7]) was 30. For the same molecule, the “Foxtail, Giant plant response rating” value (foxtail, giant; [8]) was 90, the “Plant response rating, Foxtail, Giant” value (foxtail, giant; 13 to 15 days) was 100 and the “Foxtail, Giant plant response rating” value (foxtail, giant; [15]) was 100. For the same molecule, the “Plant response rating, Ragweed” value (ragweed [6]; [13]) was 35 and the “Plant response rating, Ragweed” value (ragweed [6]; [14]) was 15.
